ChEMBL document CHEMBL1201862, “PubChem BioAssay data set” (2004)
Activity calls are given as the source filed them.

Legend:
[1] = target: T1, Replicative DNA helicase DnaB (Mycobacterium tuberculosis, UniProt P9WMR3); test: DnaB intein splicing inhibitors, dose response, biochemical, cell-free fluorescence (AID 449749); type: functional
T1 sequence (P9WMR3 whole entry): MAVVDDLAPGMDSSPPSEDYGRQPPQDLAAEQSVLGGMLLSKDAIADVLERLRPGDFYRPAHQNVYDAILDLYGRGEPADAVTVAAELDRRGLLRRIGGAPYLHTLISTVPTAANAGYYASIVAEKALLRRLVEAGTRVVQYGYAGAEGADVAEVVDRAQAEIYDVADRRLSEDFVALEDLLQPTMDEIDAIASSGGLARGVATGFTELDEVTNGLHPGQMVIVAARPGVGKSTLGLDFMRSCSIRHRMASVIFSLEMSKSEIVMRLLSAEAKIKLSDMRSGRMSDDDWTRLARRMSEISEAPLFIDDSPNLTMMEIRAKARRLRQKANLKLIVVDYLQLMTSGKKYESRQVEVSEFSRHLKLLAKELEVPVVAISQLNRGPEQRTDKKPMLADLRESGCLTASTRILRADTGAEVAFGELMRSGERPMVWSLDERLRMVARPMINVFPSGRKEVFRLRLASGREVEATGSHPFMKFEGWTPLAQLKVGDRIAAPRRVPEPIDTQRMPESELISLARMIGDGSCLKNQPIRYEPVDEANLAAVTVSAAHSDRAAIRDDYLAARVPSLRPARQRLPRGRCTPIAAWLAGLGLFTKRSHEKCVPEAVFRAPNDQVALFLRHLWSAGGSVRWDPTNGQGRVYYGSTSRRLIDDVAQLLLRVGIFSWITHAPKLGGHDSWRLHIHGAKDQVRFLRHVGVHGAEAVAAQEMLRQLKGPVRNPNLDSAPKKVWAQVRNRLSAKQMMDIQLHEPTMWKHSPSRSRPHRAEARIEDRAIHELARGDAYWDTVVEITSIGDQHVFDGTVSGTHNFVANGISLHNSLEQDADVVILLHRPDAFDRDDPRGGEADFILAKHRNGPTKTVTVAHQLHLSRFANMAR

Protein RecA = target: T2, Protein RecA (Mycobacterium tuberculosis, UniProt P9WHJ3); test: Fluorescence Cell-Free Homogeneous Dose Retest to Identify Inhibitors of RecA-Intein Splicing Activity. [Related pubchem assays (depositor defined):AID2097, AID2223, AID489010, AID492950]; type: functional
T2 sequence (P9WHJ3 whole entry): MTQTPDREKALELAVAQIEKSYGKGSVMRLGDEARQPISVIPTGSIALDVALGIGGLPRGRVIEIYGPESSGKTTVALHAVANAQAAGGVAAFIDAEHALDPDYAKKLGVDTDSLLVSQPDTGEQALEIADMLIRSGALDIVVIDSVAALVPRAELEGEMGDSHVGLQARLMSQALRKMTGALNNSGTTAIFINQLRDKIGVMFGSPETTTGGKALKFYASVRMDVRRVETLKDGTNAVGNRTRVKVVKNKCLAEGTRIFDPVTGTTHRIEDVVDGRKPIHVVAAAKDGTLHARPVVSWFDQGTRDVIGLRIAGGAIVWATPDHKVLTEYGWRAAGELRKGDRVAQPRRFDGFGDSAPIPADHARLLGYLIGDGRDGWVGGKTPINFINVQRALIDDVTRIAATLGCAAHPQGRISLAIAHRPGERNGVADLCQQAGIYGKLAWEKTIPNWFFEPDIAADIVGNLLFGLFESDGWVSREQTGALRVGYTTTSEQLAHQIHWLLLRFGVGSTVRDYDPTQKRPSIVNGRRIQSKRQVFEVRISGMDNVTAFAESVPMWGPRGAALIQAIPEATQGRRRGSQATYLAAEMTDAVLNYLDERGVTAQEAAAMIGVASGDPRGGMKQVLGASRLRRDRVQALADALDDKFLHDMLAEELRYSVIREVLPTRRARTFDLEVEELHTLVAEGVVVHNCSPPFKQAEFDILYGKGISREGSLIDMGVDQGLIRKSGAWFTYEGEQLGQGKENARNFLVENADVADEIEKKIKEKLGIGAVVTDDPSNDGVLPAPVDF

[2] = fluconazole-exposed Candida albicans growth modulators – fluorescence, retest, confirmation (AID 2467); type: functional, cell-based
[3] = NIH-3T3 fibroblast cytotoxicity, dose response, cytotoxicity control, cell-based, fluorescence, Alamar Blue, secondary assay (AID 2327); type: functional;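 further: NIH-3T3 mouse fibroblasts cultured with fluconazole at 8 µg/mL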
Cytochrome P450 2C9 = Cytochrome P450 2C9 (Homo sapiens, UniProt P11712)
Cytochrome P450 2D6 = Cytochrome P450 2D6 (Homo sapiens, UniProt P10635);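 further: CYP2D6 member of a cytochrome P450 panel assay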
Cytochrome P450 2C19 = Cytochrome P450 2C19 (Homo sapiens, UniProt P33261); test: Cytochrome panel assay with activity outcomes. Panel member name: p450-cyp2c19 Compounds with AC50 equal or less than 10 uM are considered active; type: functional; conditions: read-out: AC50
[4] = microbe, parasite or virus in culture; type: functional; conditions: Mycobacterium tuberculosis
[5] = target: T3, RNA-binding protein pos-1 (Caenorhabditis elegans, UniProt G5EF15); test: disruptors of C. elegans POS-1 RNA interaction – biochemical, fluorescence polarization, dose response (AID 1964);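 further: purified POS-1 fused to maltose binding protein made in E. coli; potency of compounds blocking POS-1 binding to fluorescent RNA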
T3 sequence (G5EF15 whole entry): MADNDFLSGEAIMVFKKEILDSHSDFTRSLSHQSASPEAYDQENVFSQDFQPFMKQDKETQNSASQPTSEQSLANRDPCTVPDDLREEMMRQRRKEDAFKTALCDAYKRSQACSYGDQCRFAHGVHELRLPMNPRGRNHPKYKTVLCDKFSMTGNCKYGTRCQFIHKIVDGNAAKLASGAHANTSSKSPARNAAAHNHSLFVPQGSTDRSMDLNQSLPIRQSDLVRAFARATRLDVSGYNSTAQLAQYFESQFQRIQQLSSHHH

[6] = target: T4, Zinc finger protein mex-5 (Caenorhabditis elegans, UniProt Q9XUB2); test: potency of MEX-5 RNA-binding blockers – biochemical, C. elegans, fluorescence polarization, dose response (AID 1960)
T4 sequence (Q9XUB2 whole entry): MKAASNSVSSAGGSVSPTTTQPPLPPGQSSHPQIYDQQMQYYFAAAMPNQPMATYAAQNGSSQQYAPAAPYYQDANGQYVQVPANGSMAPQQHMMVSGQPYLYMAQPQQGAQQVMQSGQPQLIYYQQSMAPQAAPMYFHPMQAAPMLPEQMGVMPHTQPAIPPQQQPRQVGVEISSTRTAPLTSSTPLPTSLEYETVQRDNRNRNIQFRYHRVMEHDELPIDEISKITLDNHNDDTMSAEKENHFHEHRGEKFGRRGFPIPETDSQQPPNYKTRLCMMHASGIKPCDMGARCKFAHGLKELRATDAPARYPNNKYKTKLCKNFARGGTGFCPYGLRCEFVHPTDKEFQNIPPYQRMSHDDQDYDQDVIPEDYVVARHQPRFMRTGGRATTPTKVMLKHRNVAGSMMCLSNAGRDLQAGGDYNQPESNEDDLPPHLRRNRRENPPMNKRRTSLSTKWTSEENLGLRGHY

[7] = viability of uninfected HEp-2 cells – cell-based, HTS, cytotoxicity control for RSV inhibitor project, dose response (AID 2410); type: functional; conditions: human respiratory syncytial virus
[8] = target: T5, Heat shock factor protein 1 (Mus musculus, UniProt P38532); test: enhancement of HSF1-driven luciferase signal – cell-based, NIH3T3, luminescence, dose retest, confirmation (AID 435004); type: functional;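 further: stress induced by proteasome inhibitor MG132 added 30 min after compound; luciferase reporter driven by HSF1 response element in NIH3T3 cells; actives raise luminescence as potentiators of the MG132 stress response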
T5 sequence (P38532 whole entry): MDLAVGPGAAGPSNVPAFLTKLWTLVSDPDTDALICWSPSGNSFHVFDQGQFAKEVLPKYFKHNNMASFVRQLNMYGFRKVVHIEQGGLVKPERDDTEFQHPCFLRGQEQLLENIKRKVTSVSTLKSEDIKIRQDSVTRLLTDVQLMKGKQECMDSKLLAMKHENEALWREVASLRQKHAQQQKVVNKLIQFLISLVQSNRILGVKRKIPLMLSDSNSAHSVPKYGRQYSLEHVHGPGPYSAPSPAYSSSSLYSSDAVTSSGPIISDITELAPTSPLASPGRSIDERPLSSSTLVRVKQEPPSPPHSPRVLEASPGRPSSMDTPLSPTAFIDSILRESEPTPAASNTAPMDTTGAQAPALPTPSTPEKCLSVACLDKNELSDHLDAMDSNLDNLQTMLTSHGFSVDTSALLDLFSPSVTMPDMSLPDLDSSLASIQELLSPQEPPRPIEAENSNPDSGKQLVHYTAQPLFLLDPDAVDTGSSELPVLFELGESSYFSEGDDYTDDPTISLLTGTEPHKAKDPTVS

[9] = target: FAD-linked sulfhydryl oxidase ALR (Homo sapiens, UniProt P55789); test: ALR-catalysed DTT oxidation blockers – biochemical, H2O2 detection, luminescence, cherry-pick, dose response (AID 493248)
[10] = Luminescence Cell-Based Dose Retest to Confirm Inhibitors of Cancer Stem Cells. [Related pubchem assays (depositor defined):AID2717, AID2721]; type: functional; conditions: Homo sapiens
[11] = NIH3T3 cell viability loss – ATP luminescence, mouse fibroblasts, counter-screen, dose response (AID 2010); type: functional, cell-based;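 further: cells exposed to compound for about 90 hours before reading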
[12] = Trypanosoma cruzi growth suppression in host cells – NIH3T3 host cells, beta-gal luminescence, confirmation (AID 2044); type: functional, cell-based;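 further: intracellular parasites grown in NIH/3T3 mouse fibroblasts as host cells; luminescent beta-galactosidase reporter signal from transgenic T. cruzi replicating inside host cells; inhibitors lower the luminescence signal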
INS1 = test: INS-1E survival protection against cytokine death – cell-based, luminescence, retest, dose response (AID 449756); type: functional; conditions: Rattus norvegicus;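 further: cell death triggered by IL-1 beta plus TNF-alpha plus IFN-gamma mixture; protective hits raise ATP signal compared with cytokine alone wells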
Paired box protein Pax-8 = Paired box protein Pax-8 (Homo sapiens, UniProt Q06710); test: PAX8 transcriptional activity inhibition in RMG-I – RMG-I cells, luciferase, cherry-pick, dose response (AID 687027); type: functional, cell-based;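 further: luciferase reporter driven by Pax8 target thyroperoxidase promoter measured by SteadyGlo luminescence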
Chain of Paired box protein Pax-8 (Q06710 whole entry): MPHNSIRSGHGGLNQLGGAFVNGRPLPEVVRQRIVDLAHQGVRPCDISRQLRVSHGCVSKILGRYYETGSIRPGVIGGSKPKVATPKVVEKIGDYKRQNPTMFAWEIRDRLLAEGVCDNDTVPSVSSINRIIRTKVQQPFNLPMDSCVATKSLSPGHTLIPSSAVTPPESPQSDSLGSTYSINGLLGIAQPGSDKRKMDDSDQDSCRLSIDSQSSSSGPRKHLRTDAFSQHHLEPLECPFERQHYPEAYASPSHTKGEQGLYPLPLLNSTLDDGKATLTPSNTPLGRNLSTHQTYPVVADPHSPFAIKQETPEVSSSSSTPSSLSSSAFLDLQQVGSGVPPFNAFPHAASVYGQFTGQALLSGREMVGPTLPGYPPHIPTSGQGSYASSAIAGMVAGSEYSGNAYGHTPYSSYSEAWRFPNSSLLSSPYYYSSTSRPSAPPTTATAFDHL

Chain of Cytochrome P450 2D6 (P10635 whole entry): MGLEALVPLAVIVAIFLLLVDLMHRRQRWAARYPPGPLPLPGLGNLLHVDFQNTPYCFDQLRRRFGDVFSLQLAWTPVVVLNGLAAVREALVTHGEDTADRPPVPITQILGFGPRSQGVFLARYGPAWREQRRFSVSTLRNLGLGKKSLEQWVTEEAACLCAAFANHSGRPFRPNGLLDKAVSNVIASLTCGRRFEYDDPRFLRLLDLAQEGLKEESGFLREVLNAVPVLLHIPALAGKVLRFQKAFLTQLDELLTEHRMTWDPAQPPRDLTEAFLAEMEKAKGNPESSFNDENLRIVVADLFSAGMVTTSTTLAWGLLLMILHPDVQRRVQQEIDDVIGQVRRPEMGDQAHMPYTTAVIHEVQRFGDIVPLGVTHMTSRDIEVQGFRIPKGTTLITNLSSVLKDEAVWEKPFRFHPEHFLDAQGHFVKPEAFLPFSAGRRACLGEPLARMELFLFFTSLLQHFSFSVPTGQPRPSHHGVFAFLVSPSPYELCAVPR
Chain of Cytochrome P450 2C19 (P33261 whole entry): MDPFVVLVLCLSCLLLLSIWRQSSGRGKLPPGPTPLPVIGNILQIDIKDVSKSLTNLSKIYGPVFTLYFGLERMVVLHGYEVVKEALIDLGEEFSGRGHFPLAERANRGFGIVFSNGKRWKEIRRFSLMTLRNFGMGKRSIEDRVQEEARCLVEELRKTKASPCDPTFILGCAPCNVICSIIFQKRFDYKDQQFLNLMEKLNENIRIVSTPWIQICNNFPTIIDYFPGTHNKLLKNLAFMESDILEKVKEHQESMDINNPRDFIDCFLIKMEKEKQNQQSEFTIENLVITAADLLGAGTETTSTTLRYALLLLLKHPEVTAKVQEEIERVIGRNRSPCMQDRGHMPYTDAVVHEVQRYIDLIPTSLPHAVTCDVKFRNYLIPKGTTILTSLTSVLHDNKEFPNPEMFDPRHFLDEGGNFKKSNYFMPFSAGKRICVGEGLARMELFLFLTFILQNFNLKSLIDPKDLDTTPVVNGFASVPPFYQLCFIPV
Chain of Cytochrome P450 2C9 (P11712 whole entry): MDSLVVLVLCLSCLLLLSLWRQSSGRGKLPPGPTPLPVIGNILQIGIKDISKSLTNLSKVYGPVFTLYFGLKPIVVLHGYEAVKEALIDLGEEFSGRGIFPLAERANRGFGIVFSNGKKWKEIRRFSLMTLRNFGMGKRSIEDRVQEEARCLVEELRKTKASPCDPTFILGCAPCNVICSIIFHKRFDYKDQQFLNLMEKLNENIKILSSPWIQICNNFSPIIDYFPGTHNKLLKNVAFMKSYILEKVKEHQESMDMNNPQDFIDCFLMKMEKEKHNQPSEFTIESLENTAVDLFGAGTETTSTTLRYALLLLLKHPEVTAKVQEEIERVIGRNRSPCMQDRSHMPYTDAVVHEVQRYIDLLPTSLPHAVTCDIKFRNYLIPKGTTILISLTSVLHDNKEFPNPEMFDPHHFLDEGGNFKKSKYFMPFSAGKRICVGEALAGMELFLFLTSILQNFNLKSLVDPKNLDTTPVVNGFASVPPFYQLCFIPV
Chain of FAD-linked sulfhydryl oxidase ALR (P55789 whole entry): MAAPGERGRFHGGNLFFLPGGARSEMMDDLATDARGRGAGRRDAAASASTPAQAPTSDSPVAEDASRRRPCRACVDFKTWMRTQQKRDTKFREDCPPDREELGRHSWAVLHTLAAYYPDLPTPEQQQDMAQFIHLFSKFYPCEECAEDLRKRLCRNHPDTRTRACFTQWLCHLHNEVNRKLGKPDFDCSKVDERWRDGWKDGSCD

Compound: N#CC(C#N)=NNc1ccc(S(=O)(=O)N2CCCC2)cc1
- AC50 [1]: 6.9 µM (active)
- EC50 (Protein RecA): 23.9 µM (active)

Compound: O=[N+]([O-])c1ccc(C2[C@H]3C(c4ccccc4)=NC4(CCCC4)N23)cc1 (stereo not given in full)
- EC50 [2]: > 38 µM (not active)
- EC50 [3]: > 150 µM (inactive)

Compound: COc1ccc(-c2cc(-c3c(O)c(OC)c4occc4c3OC)[nH]n2)cc1OC
- AC50 (Cytochrome P450 2C9): 39.8 µM (inconclusive)
- AC50 (Cytochrome P450 2D6): 25.1 µM (inconclusive)
- EC50 [2]: > 38 µM (not active)
- EC50 [3]: > 160 µM (inactive)

Compound: Cn1c(=O)cc(OCCCC(=O)Nc2cccnc2)c2ccccc21
- AC50 (Cytochrome P450 2C19): 20 µM (inconclusive)
- AC50 (Cytochrome P450 2D6): 10 µM (inconclusive)
- EC50 [2]: > 38 µM (not active)
- EC50 [3]: > 160 µM (inactive)

Compound: COCCCNC(=O)/C(C#N)=C/c1c(N2CCN(c3cccc(Cl)c3)CC2)nc2c(C)cccn2c1=O
- CC50 [4]: > 40 µM (active)

Compound: COc1ccccc1N1CCN(CCCCOc2cccc3ccccc23)CC1
- CC50 [4]: > 40 µM (active)

Compound: CCC(O)CC(C(=O)NNc1ccccc1)C(=O)NNc1ccccc1 (stereo not given)
- EC50 [2]: > 38 µM (not active)
- EC50 [3]: 20.6 µM (active)

Compound: COC(CN(C(=O)CCl)C(C(=O)NC1CCCCC1)c1ccc(C)cc1)OC (stereo not given)
- AC50 [1]: > 380 µM (inactive)
- EC50 (Protein RecA): 7 µM (active)

Compound: CN(CC(=O)Nc1ccc(F)c(F)c1F)c1cnccn1
- CC50 [4]: 23.5 µM (active)

Compound: CCN(CC)c1ccc(C=C2C(=O)OC(C)(C(C)(C)C)OC2=O)cc1 (stereo not given)
- EC50 [5]: > 300 µM (inconclusive)
- EC50 [6]: > 300 µM (inconclusive)

Compound: CC(=O)COc1cccc2ccc(/C=C/c3ccc(Br)s3)nc12
- CC50 [7]: 45.4 µM (active)
- EC50 [8]: 60.9 µM (active)

Compound: O=C(NNc1cccc(Cl)c1)c1cccnc1Cl
- AC50 [9]: 4.14 µM (active)
- EC50 [2]: > 38 µM (not active)
- EC50 [3]: 24.8 µM (active)

Compound: CC(c1ccc(O)cc1)(c1ccc(O)cc1)c1ccc(CCBr)cc1
- AC50 [1]: 46.4 µM (active)
- CC50 [7]: 17.4 µM (active)
- EC50 (Protein RecA): 9.45 µM (active)

Compound: CCOC(=O)c1cnc2ccc(C)cc2c1Sc1ccccc1
- AC50 [1]: 5.63 µM (active)
- EC50 (Protein RecA): 5.87 µM (active)

Compound: CC(=O)n1c2c(c3ccccc31)OC(N)=C(C#N)C2c1cccc(Cl)c1Cl (stereo not given)
- EC50 [8]: 42.4 µM (active)
- AC50 [10]: 1.57 µM (active)

Compound: COc1ccc(Nc2nc3ccccc3nc2NS(=O)(=O)c2cccs2)cc1
- EC50 [5]: > 300 µM (inconclusive)
- EC50 [6]: 34.8 µM (active)

Compound: COc1ccccc1-c1cc(C(=O)NC2CCN(C)CC2)c2ccc(Cl)c(C)c2n1
- CC50 [4]: 7.01 µM (active)
- EC50 [11]: > 60 µM (not active)
- EC50 [12]: 1.4 µM (active)

Compound: O=C1C(=CNCCN2CCNCC2)C(=O)N(C2CCCCC2)C(=O)N1C1CCCCC1
- CC50 [4]: 33.5 µM (active)

Compound: COc1cc2c(cc1/C=C1/NC(=O)N(c3ccccc3)C1=O)OCO2
- EC50 [5]: > 300 µM (not active)
- EC50 [6]: > 300 µM (not active)

Compound: COCCNC(=O)NC12CC3CC(CC(C3)C1)C2
- EC50 [2]: > 38 µM (not active)
- EC50 [3]: > 160 µM (inconclusive)

Compound: O=C(NCCc1ccccc1)[C@@H]1CC=C[C@@H]2CCN(Cc3ccc(Cl)c(Cl)c3)C(=O)[C@@H]21
- CC50 [4]: 34.4 µM (active)
- AC50 (INS1): 6.35 µM (active)

Compound: Cc1ccc(C)c(CN2C(=O)COc3ccccc32)c1
- EC50 [8]: > 260 µM (inactive)

Compound: CCc1ccccc1N=C(S)NNC(=O)c1ccccc1Cl
- EC50 [2]: 1.93 µM (active)
- EC50 [3]: > 150 µM (inactive)

Compound: CCCCNC(=O)/C(=C\c1ccc([N+](=O)[O-])o1)NC(=O)c1ccccc1
- EC50 [11]: > 60 µM (inconclusive)
- EC50 [12]: 0.863 µM (active)
- EC50 [2]: 0.265 µM (active)
- EC50 [3]: > 150 µM (inactive)

Compound: Cc1ccc(S(=O)(=O)N(C)C[C@H]2Oc3ccc(NC(=O)Nc4ccc(C(F)(F)F)cc4)cc3CC(=O)N([C@@H](C)CO)C[C@H]2C)cc1
- AC50 (Paired box protein Pax-8): 9.45 µM (active)

Compound: C/C(=N/NC(=O)c1ccccc1O)c1ccc(N2C(=O)C3CCCCC3C2=O)cc1 (stereo not given)
- EC50 [2]: > 38 µM (not active)
- EC50 [3]: > 160 µM (inactive)
